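Five concentrations, 48 hours, 96-well plates. The concentration for 50% growth inhibition is given as GI50. TGI denotes the concentration required for complete inhibition of growth.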
What was measured:
Assay in all cases: inhibition of tumour cell growth, NCI panel, 48 h
HOP-62 NSCLC = system: HOP-62 NSCLC
LOX IMVI melanoma = system: LOX IMVI melanoma
SK-MEL-5 melanoma = system: SK-MEL-5 melanoma
COLO 205 colon = system: COLO 205 colon
CAKI-1 renal = system: CAKI-1 renal
NCI/ADR-RES ovarian = system: NCI/ADR-RES ovarian
HL-60(TB) leukemia = system: HL-60(TB) leukemia
MALME-3M melanoma = system: MALME-3M melanoma
SNB-75 CNS = system: SNB-75 CNS
HS 578T breast = system: HS 578T breast
SNB-19 CNS = system: SNB-19 CNS
UACC-62 melanoma = system: UACC-62 melanoma
HT29 colon = system: HT29 colon
SW-620 colon = system: SW-620 colon
T-47D breast = system: T-47D breast
M14 melanoma = system: M14 melanoma
HCT-15 colon = system: HCT-15 colon
786-0 renal = system: 786-0 renal
MDA-MB-435 = system: MDA-MB-435
ACHN renal = system: ACHN renal
SN12C renal = system: SN12C renal
KM12 colon = system: KM12 colon
SK-OV-3 ovarian = system: SK-OV-3 ovarian
MCF7 breast = system: MCF7 breast
OVCAR-4 ovarian = system: OVCAR-4 ovarian
HOP-92 NSCLC = system: HOP-92 NSCLC
SK-MEL-28 melanoma = system: SK-MEL-28 melanoma
UACC-257 melanoma = system: UACC-257 melanoma
SF-539 CNS = system: SF-539 CNS
U251 CNS = system: U251 CNS
NCI-H460 lung = system: NCI-H460 lung
DU-145 prostate = system: DU-145 prostate
SF-295 CNS = system: SF-295 CNS
BT-549 breast = system: BT-549 breast
PC-3 prostate = system: PC-3 prostate
NCI-H23 lung = system: NCI-H23 lung
A498 renal = system: A498 renal
OVCAR-8 ovarian = system: OVCAR-8 ovarian
OVCAR-3 ovarian = system: OVCAR-3 ovarian
NCI-H226 lung = system: NCI-H226 lung
SR leukemia = system: SR leukemia
RPMI-8226 leukemia = system: RPMI-8226 leukemia
SK-MEL-2 melanoma = system: SK-MEL-2 melanoma
CCRF-CEM leukemia = system: CCRF-CEM leukemia
K-562 leukemia = system: K-562 leukemia
NCI-H522 lung = system: NCI-H522 lung
MOLT-4 leukemia = system: MOLT-4 leukemia
IGROV1 ovarian = system: IGROV1 ovarian
TK-10 renal = system: TK-10 renal
RXF 393 renal = system: RXF 393 renal
MDA-MB-231 breast = system: MDA-MB-231 breast
OVCAR-5 ovarian = system: OVCAR-5 ovarian
SF-268 CNS = system: SF-268 CNS
UO-31 renal = system: UO-31 renal
HCC-2998 colon = system: HCC-2998 colon
A549 NSCLC = system: A549 NSCLC
HCT-116 colon = system: HCT-116 colon

`COc1ccc(-c2c(-c3cc(OC)c(OC)c(OC)c3)nc3sc(C4CC4)nn23)cc1OC` was tested, and the GI50 (HOP-62 NSCLC) was 1.58 µM, the TGI (HOP-62 NSCLC) was over 100 µM and the GI50 (LOX IMVI melanoma) was 3.27 µM. For the same molecule, the TGI (LOX IMVI melanoma) was over 100 µM, the GI50 (SK-MEL-5 melanoma) was 2.39 µM and the TGI (SK-MEL-5 melanoma) was 15 µM. For the same molecule, the GI50 (COLO 205 colon) was 3.11 µM, the TGI (COLO 205 colon) was 20.2 µM and the GI50 (CAKI-1 renal) was 0.943 µM. It also gave a TGI (CAKI-1 renal) of over 100 µM, a GI50 (NCI/ADR-RES ovarian) of 7.35 µM and a TGI (NCI/ADR-RES ovarian) of over 100 µM. The GI50 (HL-60(TB) leukemia) was 1.68 µM, the TGI (HL-60(TB) leukemia) was 41.6 µM and the GI50 (MALME-3M melanoma) was 18.1 µM. It also gave a TGI (MALME-3M melanoma) of 75.2 µM, a GI50 (SNB-75 CNS) of 0.641 µM and a TGI (SNB-75 CNS) of over 100 µM. For the same molecule, the GI50 (HS 578T breast) was 4.19 µM, the TGI (HS 578T breast) was over 100 µM and the GI50 (SNB-19 CNS) was 9.04 µM. The TGI (SNB-19 CNS) was over 100 µM, the GI50 (UACC-62 melanoma) was 1.94 µM and the TGI (UACC-62 melanoma) was 40.4 µM. It also gave a GI50 (HT29 colon) of 3.48 µM, a TGI (HT29 colon) of over 100 µM and a GI50 (SW-620 colon) of 13.2 µM. The TGI (SW-620 colon) was over 100 µM, the GI50 (T-47D breast) was 1.51 µM and the TGI (T-47D breast) was 30.5 µM. For the same molecule, the GI50 (M14 melanoma) was 6.42 µM, the TGI (M14 melanoma) was over 100 µM and the GI50 (HCT-15 colon) was 2.42 µM. For the same molecule, the TGI (HCT-15 colon) was 58.3 µM, the GI50 (786-0 renal) was 4.66 µM and the TGI (786-0 renal) was over 100 µM. It also gave a GI50 (MDA-MB-435) of 6.81 µM, a TGI (MDA-MB-435) of over 100 µM and a GI50 (ACHN renal) of 2.99 µM. The TGI (ACHN renal) was 42.6 µM, the GI50 (SN12C renal) was 10.7 µM and the TGI (SN12C renal) was over 100 µM. For the same molecule, the GI50 (KM12 colon) was 17.5 µM, the TGI (KM12 colon) was over 100 µM and the GI50 (SK-OV-3 ovarian) was 2.9 µM. For the same molecule, the TGI (SK-OV-3 ovarian) was 69 µM, the GI50 (MCF7 breast) was 1.96 µM and the TGI (MCF7 breast) was over 100 µM. The GI50 (OVCAR-4 ovarian) was 3.26 µM, the TGI (OVCAR-4 ovarian) was over 100 µM and the GI50 (HOP-92 NSCLC) was 0.58 µM. For the same molecule, the TGI (HOP-92 NSCLC) was 9 µM, the GI50 (SK-MEL-28 melanoma) was 5.83 µM and the TGI (SK-MEL-28 melanoma) was over 100 µM. The GI50 (UACC-257 melanoma) was 9.68 µM, the TGI (UACC-257 melanoma) was over 100 µM and the GI50 (SF-539 CNS) was 5.62 µM. For the same molecule, the TGI (SF-539 CNS) was over 100 µM, the GI50 (U251 CNS) was 8.15 µM and the TGI (U251 CNS) was over 100 µM. It also gave a GI50 (NCI-H460 lung) of 11.9 µM, a TGI (NCI-H460 lung) of over 100 µM and a GI50 (DU-145 prostate) of 51.3 µM. For the same molecule, the TGI (DU-145 prostate) was over 100 µM, the GI50 (SF-295 CNS) was 6.11 µM and the TGI (SF-295 CNS) was over 100 µM. For the same molecule, the GI50 (BT-549 breast) was 10.2 µM, the TGI (BT-549 breast) was over 100 µM and the GI50 (PC-3 prostate) was 9.66 µM. For the same molecule, the TGI (PC-3 prostate) was over 100 µM, the GI50 (NCI-H23 lung) was 11.6 µM and the TGI (NCI-H23 lung) was over 100 µM. For the same molecule, the GI50 (A498 renal) was 0.75 µM, the TGI (A498 renal) was 7.84 µM and the GI50 (OVCAR-8 ovarian) was 6.13 µM. It also gave a TGI (OVCAR-8 ovarian) of over 100 µM, a GI50 (OVCAR-3 ovarian) of 7.11 µM and a TGI (OVCAR-3 ovarian) of over 100 µM. The GI50 (NCI-H226 lung) was 16.3 µM, the TGI (NCI-H226 lung) was over 100 µM and the GI50 (SR leukemia) was 3.73 µM. It also gave a TGI (SR leukemia) of over 100 µM, a GI50 (RPMI-8226 leukemia) of 3 µM and a TGI (RPMI-8226 leukemia) of 19.6 µM. The GI50 (SK-MEL-2 melanoma) was 7.52 µM, the TGI (SK-MEL-2 melanoma) was 50.8 µM and the GI50 (CCRF-CEM leukemia) was 7.81 µM. For the same molecule, the TGI (CCRF-CEM leukemia) was over 100 µM, the GI50 (K-562 leukemia) was 10 µM and the TGI (K-562 leukemia) was over 100 µM. It also gave a GI50 (NCI-H522 lung) of 1.7 µM, a TGI (NCI-H522 lung) of 40 µM and a GI50 (MOLT-4 leukemia) of 9.94 µM. It also gave a TGI (MOLT-4 leukemia) of 72 µM, a GI50 (IGROV1 ovarian) of 5.28 µM and a TGI (IGROV1 ovarian) of over 100 µM. The GI50 (TK-10 renal) was 2.6 µM, the TGI (TK-10 renal) was 37.3 µM and the GI50 (RXF 393 renal) was 5.46 µM. It also gave a TGI (RXF 393 renal) of 43 µM, a GI50 (MDA-MB-231 breast) of 2.72 µM and a TGI (MDA-MB-231 breast) of over 100 µM. The GI50 (OVCAR-5 ovarian) was 6.18 µM, the TGI (OVCAR-5 ovarian) was over 100 µM and the GI50 (SF-268 CNS) was 32.8 µM. It also gave a TGI (SF-268 CNS) of over 100 µM, a GI50 (UO-31 renal) of 1.42 µM and a TGI (UO-31 renal) of 90.5 µM. For the same molecule, the GI50 (HCC-2998 colon) was 12.3 µM, the TGI (HCC-2998 colon) was over 100 µM and the GI50 (A549 NSCLC) was 8.29 µM. It also gave a TGI (A549 NSCLC) of over 100 µM, a GI50 (HCT-116 colon) of 4.79 µM and a TGI (HCT-116 colon) of over 100 µM.

— PubChem BioAssay (NCI)
